HELM strings list units from the 5' end as sugar, base in round brackets, then linkage (d deoxyribose, r ribose, m 2'-O-methyl, p phosphodiester). Strings are as the collection lists them, not checked against the first reports. ss, as = sense and antisense strand
Further: test system not given here.

The conditions of the series: siRNA.
Substance “RNA1{m(A)p.r(A)p.m(A)p.r(G)p.m(C)p.r(G)p.m(G)p.r(U)p.m(G)p.r(G)p.m(A)p.r(U)p.m(C)p.r(A)p.m(G)p.r(C)p.m(U)p.r(C)p.m(U)p.r(T)p.r(T)}|RNA2{r(A)p.m(G)p.r(A)p.m(G)p.r(C)p.r(U)p.r(G)p.r(A)p.r(U)p.r(C)p.r(C)p.r(A)p.r(C)p.r(C)p.m(G)p.r(C)p.r(U)p.r(U)p.r(U)p.r(T)p.r(T)}$$$RNA1{StrandType:ss}|RNA2{StrandType:as}$” had a target mRNA knockdown of 43%.

Regarding “RNA1{m(A)p.r(A)p.m(A)p.r(G)p.m(G)p.r(G)p.m(G)p.r(A)p.m(G)p.r(U)p.m(U)p.r(G)p.m(C)p.r(U)p.m(G)p.r(G)p.m(A)p.r(A)p.m(G)p.r(T)p.r(T)}|RNA2{r(C)p.r(U)p.r(U)p.r(C)p.r(C)p.r(A)p.r(G)p.r(C)p.m(A)p.m(A)p.r(C)p.r(U)p.r(C)p.r(C)p.r(C)p.r(C)p.r(U)p.r(U)p.r(U)p.r(T)p.r(T)}$$$RNA1{StrandType:ss}|RNA2{StrandType:as}$”, the target mRNA knockdown is 47%.

Turning to “RNA1{m(A)p.r(A)p.m(C)p.r(A)p.m(G)p.r(C)p.m(C)p.r(U)p.m(U)p.r(A)p.m(C)p.r(C)p.m(C)p.r(C)p.m(G)p.r(A)p.m(U)p.r(U)p.m(C)p.r(T)p.r(T)}|RNA2{r(G)p.m(A)p.m(A)p.r(U)p.r(C)p.r(G)p.r(G)p.r(G)p.r(G)p.r(U)p.m(A)p.m(A)p.r(G)p.r(G)p.r(C)p.r(U)p.r(G)p.r(U)p.r(U)p.r(T)p.r(T)}$$$RNA1{StrandType:ss}|RNA2{StrandType:as}$”, the target mRNA knockdown was determined as 32%.

Take “RNA1{m(A)p.r(A)p.m(C)p.r(A)p.m(G)p.r(U)p.m(C)p.r(C)p.m(U)p.r(U)p.r(A)p.m(G)p.r(C)p.m(U)p.r(A)p.r(C)p.m(G)p.r(C)p.r(U)p.r(T)p.r(T)}|RNA2{r(A)p.r(G)p.r(C)p.r(G)p.r(U)p.r(A)p.r(G)p.r(C)p.r(U)p.r(A)p.r(A)p.r(G)p.r(G)p.r(A)p.r(C)p.r(U)p.r(G)p.r(U)p.r(U)p.r(T)p.r(T)}$$$RNA1{StrandType:ss}|RNA2{StrandType:as}$”: the target mRNA knockdown worked out at 35%.

Regarding “RNA1{m(A)p.r(A)p.m(C)p.r(U)p.m(U)p.r(C)p.m(U)p.r(G)p.m(G)p.r(G)p.m(A)p.r(G)p.m(C)p.r(C)p.m(U)p.r(C)p.m(C)p.r(A)p.m(A)p.r(T)p.r(T)}|RNA2{r(U)p.r(U)p.r(G)p.r(G)p.m(A)p.r(G)p.r(G)p.r(C)p.r(U)p.r(C)p.r(C)p.r(C)p.m(A)p.r(G)p.m(A)p.m(A)p.r(G)p.r(U)p.r(U)p.r(T)p.r(T)}$$$RNA1{StrandType:ss}|RNA2{StrandType:as}$”, the target mRNA knockdown was determined as 42%.

Regarding “RNA1{m(A)p.r(A)p.m(G)p.r(G)p.m(A)p.r(A)p.m(C)p.r(G)p.m(G)p.r(G)p.m(G)p.r(A)p.m(C)p.r(A)p.m(C)p.r(U)p.m(U)p.r(A)p.m(C)p.r(T)p.r(T)}|RNA2{r(G)p.r(U)p.r(A)p.r(A)p.r(G)p.r(U)p.r(G)p.r(U)p.r(C)p.r(C)p.r(C)p.r(C)p.r(G)p.r(U)p.r(U)p.r(C)p.r(C)p.r(U)p.r(U)p.r(T)p.r(T)}$$$RNA1{StrandType:ss}|RNA2{StrandType:as}$”, the target mRNA knockdown worked out at 12%.

On to “RNA1{m(A)p.r(A)p.m(G)p.r(G)p.m(A)p.r(C)p.m(C)p.r(U)p.m(A)p.r(G)p.m(A)p.r(G)p.m(G)p.r(A)p.m(G)p.r(U)p.m(C)p.r(A)p.m(C)p.r(T)p.r(T)}|RNA2{m(G)p.r(U)p.m(G)p.r(A)p.r(C)p.r(U)p.r(C)p.r(C)p.r(U)p.r(C)p.r(U)p.r(A)p.m(G)p.m(G)p.r(U)p.r(C)p.r(C)p.r(U)p.r(U)p.r(T)p.r(T)}$$$RNA1{StrandType:ss}|RNA2{StrandType:as}$”, for which the target mRNA knockdown turned out to be 36%.

In the case of “RNA1{m(A)p.r(A)p.m(G)p.r(G)p.m(A)p.r(G)p.m(A)p.r(U)p.m(C)p.r(A)p.m(A)p.r(C)p.m(A)p.r(U)p.m(U)p.r(U)p.m(U)p.r(C)p.m(A)p.r(T)p.r(T)}|RNA2{m(U)p.r(G)p.m(A)p.r(A)p.m(A)p.r(A)p.m(U)p.r(G)p.m(U)p.r(U)p.m(G)p.r(A)p.m(U)p.r(C)p.m(U)p.r(C)p.m(C)p.r(U)p.m(U)p.r(T)p.r(T)}$$$RNA1{StrandType:ss}|RNA2{StrandType:as}$”, the target mRNA knockdown came to 75%.

Consider “RNA1{m(A)p.r(A)p.m(G)p.r(G)p.m(A)p.r(G)p.m(A)p.r(U)p.m(C)p.r(A)p.m(A)p.r(C)p.m(A)p.r(U)p.m(U)p.r(U)p.m(U)p.r(C)p.m(A)p.r(T)p.r(T)}|RNA2{r(U)p.m(G)p.r(A)p.m(A)p.r(A)p.m(A)p.r(U)p.m(G)p.r(U)p.m(U)p.r(G)p.m(A)p.r(U)p.m(C)p.r(U)p.m(C)p.r(C)p.m(U)p.r(U)p.r(T)p.r(T)}$$$RNA1{StrandType:ss}|RNA2{StrandType:as}$”, for which the target mRNA knockdown turned out to be 65%.

Turning to “RNA1{m(A)p.r(A)p.m(G)p.r(G)p.m(C)p.r(A)p.m(U)p.r(G)p.m(C)p.r(U)p.m(U)p.r(C)p.m(G)p.r(G)p.m(A)p.r(A)p.m(A)p.r(C)p.m(U)p.r(T)p.r(T)}|RNA2{r(A)p.m(G)p.r(U)p.r(U)p.r(U)p.r(C)p.r(C)p.r(G)p.r(A)p.r(A)p.m(G)p.r(C)p.r(A)p.r(U)p.m(G)p.r(C)p.r(C)p.r(U)p.r(U)p.r(T)p.r(T)}$$$RNA1{StrandType:ss}|RNA2{StrandType:as}$”, the target mRNA knockdown turned out to be 60%.

“RNA1{m(A)p.r(A)p.m(U)p.r(A)p.m(A)p.r(G)p.m(C)p.r(A)p.m(G)p.r(C)p.m(U)p.r(C)p.m(G)p.r(C)p.m(G)p.r(C)p.m(U)p.r(C)p.m(C)p.r(T)p.r(T)}|RNA2{r(G)p.r(G)p.m(A)p.r(G)p.r(C)p.r(G)p.r(C)p.r(G)p.m(A)p.r(G)p.r(C)p.r(U)p.r(G)p.r(C)p.r(U)p.r(U)p.m(A)p.r(U)p.r(U)p.r(T)p.r(T)}$$$RNA1{StrandType:ss}|RNA2{StrandType:as}$” gave a target mRNA knockdown of 32%.

With “RNA1{m(A)p.r(C)p.m(C)p.r(G)p.m(A)p.r(C)p.m(G)p.r(A)p.m(U)p.r(U)p.m(C)p.r(U)p.m(U)p.r(C)p.m(U)p.r(A)p.m(C)p.r(U)p.m(C)p.r(T)p.r(T)}|RNA2{r(G)p.r(A)p.r(G)p.r(U)p.r(A)p.r(G)p.r(A)p.r(A)p.r(G)p.r(A)p.r(A)p.r(U)p.r(C)p.r(G)p.r(U)p.r(C)p.r(G)p.r(G)p.r(U)p.r(T)p.r(T)}$$$RNA1{StrandType:ss}|RNA2{StrandType:as}$”, the target mRNA knockdown stood at 42%.

In turn, “RNA1{m(A)p.r(C)p.m(C)p.r(U)p.m(U)p.r(A)p.m(A)p.r(G)p.m(G)p.r(A)p.m(C)p.r(C)p.m(A)p.r(C)p.m(C)p.r(G)p.m(G)p.r(A)p.m(U)p.r(T)p.r(T)}|RNA2{r(A)p.r(U)p.r(C)p.m(C)p.r(G)p.r(G)p.r(U)p.r(G)p.r(G)p.r(U)p.r(C)p.r(C)p.m(U)p.r(U)p.m(A)p.r(A)p.m(G)p.r(G)p.m(U)p.r(T)p.r(T)}$$$RNA1{StrandType:ss}|RNA2{StrandType:as}$” had a target mRNA knockdown of 52%.

Substance “RNA1{m(A)p.r(C)p.m(G)p.r(U)p.m(C)p.r(A)p.m(C)p.r(C)p.m(G)p.r(A)p.m(G)p.r(G)p.m(A)p.r(G)p.m(A)p.r(A)p.m(G)p.r(U)p.m(A)p.r(T)p.r(T)}|RNA2{r(U)p.r(A)p.r(C)p.r(U)p.r(U)p.r(C)p.r(U)p.r(C)p.r(C)p.r(U)p.r(C)p.m(G)p.m(G)p.r(U)p.r(G)p.r(A)p.r(C)p.m(G)p.r(U)p.r(T)p.r(T)}$$$RNA1{StrandType:ss}|RNA2{StrandType:as}$” came in with a target mRNA knockdown of 31%.

Regarding “RNA1{m(A)p.r(C)p.m(G)p.r(U)p.m(C)p.r(A)p.m(C)p.r(C)p.m(G)p.r(A)p.m(G)p.r(G)p.m(A)p.r(G)p.m(A)p.r(A)p.m(G)p.r(U)p.m(A)p.r(T)p.r(T)}|RNA2{r(U)p.r(A)p.r(C)p.r(U)p.r(U)p.r(C)p.r(U)p.r(C)p.r(C)p.r(U)p.r(C)p.r(G)p.r(G)p.r(U)p.r(G)p.r(A)p.r(C)p.r(G)p.r(U)p.r(T)p.r(T)}$$$RNA1{StrandType:ss}|RNA2{StrandType:as}$”, the target mRNA knockdown was 36%.

On to “RNA1{m(A)p.r(G)p.m(A)p.r(A)p.m(A)p.r(A)p.m(G)p.r(C)p.m(A)p.r(G)p.m(C)p.r(G)p.m(A)p.r(U)p.m(A)p.r(C)p.m(G)p.r(C)p.m(U)p.r(T)p.r(T)}|RNA2{r(A)p.r(G)p.r(C)p.r(G)p.r(U)p.r(A)p.r(U)p.r(C)p.r(G)p.r(C)p.r(U)p.r(G)p.r(C)p.r(U)p.r(U)p.r(U)p.r(U)p.r(C)p.r(U)p.r(T)p.r(T)}$$$RNA1{StrandType:ss}|RNA2{StrandType:as}$”, for which the target mRNA knockdown is 34%.

For the substance “RNA1{m(A)p.r(G)p.m(A)p.r(A)p.m(A)p.r(C)p.m(G)p.r(C)p.m(A)p.r(G)p.m(U)p.r(A)p.m(A)p.r(U)p.m(C)p.r(C)p.m(G)p.r(G)p.m(A)p.r(T)p.r(T)}|RNA2{r(U)p.r(C)p.r(C)p.m(G)p.m(G)p.r(A)p.r(U)p.r(U)p.r(A)p.r(C)p.r(U)p.m(G)p.r(C)p.m(G)p.r(U)p.r(U)p.r(U)p.r(C)p.r(U)p.r(T)p.r(T)}$$$RNA1{StrandType:ss}|RNA2{StrandType:as}$”, the target mRNA knockdown was 36%.

Substance “RNA1{m(A)p.r(G)p.m(A)p.r(A)p.m(G)p.r(U)p.m(A)p.r(C)p.m(C)p.r(A)p.m(G)p.r(G)p.m(A)p.r(G)p.m(G)p.r(C)p.m(G)p.r(U)p.m(U)p.r(T)p.r(T)}|RNA2{r(A)p.r(A)p.r(C)p.r(G)p.r(C)p.r(C)p.r(U)p.r(C)p.r(C)p.r(U)p.r(G)p.r(G)p.r(U)p.r(A)p.r(C)p.r(U)p.r(U)p.r(C)p.r(U)p.r(T)p.r(T)}$$$RNA1{StrandType:ss}|RNA2{StrandType:as}$” registered a target mRNA knockdown of 24%.

“RNA1{m(A)p.r(G)p.m(A)p.r(G)p.m(A)p.r(G)p.m(G)p.r(U)p.m(G)p.r(G)p.m(A)p.r(G)p.m(G)p.r(U)p.m(A)p.r(U)p.m(C)p.r(U)p.m(C)p.r(T)p.r(T)}|RNA2{r(G)p.r(A)p.r(G)p.r(A)p.r(U)p.r(A)p.r(C)p.r(C)p.r(U)p.r(C)p.r(C)p.m(A)p.r(C)p.r(C)p.r(U)p.m(C)p.r(U)p.m(C)p.r(U)p.r(T)p.r(T)}$$$RNA1{StrandType:ss}|RNA2{StrandType:as}$”: the target mRNA knockdown turned out to be 67%.

Take “RNA1{m(A)p.r(G)p.m(C)p.r(C)p.m(A)p.r(C)p.m(A)p.r(U)p.m(U)p.r(U)p.m(C)p.r(U)p.m(A)p.r(G)p.m(G)p.r(A)p.m(G)p.r(A)p.r(U)p.r(T)p.r(T)}|RNA2{r(A)p.r(U)p.r(C)p.r(U)p.r(C)p.r(C)p.r(U)p.r(A)p.r(G)p.r(A)p.r(A)p.r(A)p.r(U)p.r(G)p.r(U)p.r(G)p.r(G)p.r(C)p.r(U)p.r(T)p.r(T)}$$$RNA1{StrandType:ss}|RNA2{StrandType:as}$”: the target mRNA knockdown was found to be 19%.

Values taken from the OligoGym collection.
